Values of other authors as cited in US12195551B2, “Combination of an ErbB-2/ErbB-3 bispecific antibody with endocrine therapy for breast cancer” (Merus N.V., priority 2017, dated 2025).

Tested on: HBCx-34 PDX model
Settings: model characterisation; cited from earlier work

Row | Compound | response of the HBCx-34 PDX model
1 | CCCCCOC(=O)Nc1nc(=O)n([C@@H]2O[C@H](C)[C@@H](O)[C@H]2O)cc1F [Capecitabine] | responder
2 | CC(=O)O[C@@]12CO[C@@H]1C[C@H](O)[C@@]1(C)C(=O)[C@H](O)C3=C(C)[C@@H](OC(=O)[C@H](O)[C@@H](NC(=O)OC(C)(C)C)c4ccccc4)C[C@@](O)([C@@H](OC(=O)c4ccccc4)[C@H]21)C3(C)C [Docetaxel] | responder
